# Biological target: T1, KCNQ2/3 channels (Homo sapiens, UniProt O43525+O43526)
# T1 construct: expressed in transfected cells; host or cells: CHO-K1
# Assay: Fluorescence assay using a voltage-sensitive dye
# Assay type: cell-based
# Conditions: 10 μmol test substance; CHO-K1 cells expressing KCNQ2/3 channels; agonistic activity; read-out: % Stimulation [10 μmol] Average
# Outline: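 CHO-K1 cells expressing KCNQ2/3 loaded with membrane-potential dye in ES buffer (1 mM KCl, pH 7.4), compound 30 min at room temperature, then KCl added (final 92 mM). Fluorescence (ex 525/em 560 nm) read before (F1) and at peak after (F2) KCl; agonism from F2/F1 change versus buffer controls, EC50 calculated.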
row,Compound,activation at 10 µM
1,"O=C(c1cn2c(n1)CCC(c1cccc(C(F)(F)F)c1)C2)N1CCCC1 (stereo not drawn) [Compound 31, Pyrrolidin-1-yl(6-(3-(trifluoromethyl)phenyl)-5,6,7,8-tetrahydroimidazo[1,2-a]pyridin-2-yl)methanone]",17.6%
2,"Cc1cc(C2CCc3nc(C(=O)N4CCN(c5ccc(F)cc5)CC4)cn3C2)ccc1F (stereo not drawn) [Compound 63, (6-(4-Fluoro-3-methylphenyl)-5,6,7,8-tetrahydroimidazo[1,2-a]pyridin-2-yl)(4-(4-fluorophenyl)piperazin-1-yl)methanone]",96.7%
3,"Cc1cc(C2CCc3nc(C(=O)NCC4CCCCC4)cn3C2)ccc1F (stereo not drawn) [Compound 68, N-(Cyclohexylmethyl)-6-(4-fluoro-3-methylphenyl)-5,6,7,8-tetrahydroimidazo[1,2-a]pyridine-2-carboxamide]",25.1%
4,"Cc1cc(C2CCc3nc(C(=O)N4CCN(c5ccccc5F)CC4)cn3C2)ccc1F (stereo not drawn) [Compound 13, (6-(4-Fluoro-3-methylphenyl)-5,6,7,8-tetrahydroimidazo[1,2-a]pyridin-2-yl)(4-(2-fluorophenyl)piperazin-1-yl)methanone]",18%

# The next lines start with the values.
row,activation at 10 µM,Compound
1,51.9%,"Cc1ccc(C2CCc3nc(C(=O)N4CCN(c5cccc(C(F)(F)F)c5)CC4)cn3C2)cc1 (stereo not drawn) [Compound 74, (6-p-Tolyl-5,6,7,8-tetrahydroimidazo[1,2-a]pyridin-2-yl)(4-(3-(trifluoromethyl)phenyl)piperazin-1-yl)methanone]"
2,120%,"Cc1cc(C2CCc3nc(C(=O)N4CCC(c5cccc(C(F)(F)F)c5)CC4)cn3C2)ccc1F (stereo not drawn) [Compound 85, (6-(4-Fluoro-3-methylphenyl)-5,6,7,8-tetrahydroimidazo[1,2-a]pyridin-2-yl)(4-(3-(trifluoromethyl)phenyl)piperidin-1-yl)methanone]"
3,103%,"Cc1cc(C2CCc3nc(C(=O)NC(C)CCc4ccccc4)cn3C2)ccc1F (stereo not drawn) [Compound 72, 6-(4-Fluoro-3-methylphenyl)-N-(4-phenylbutan-2-yl)-5,6,7,8-tetrahydroimidazo[1,2-a]pyridine-2-carboxamide]"

# Same assay, conditions: CHO-K1 cells expressing KCNQ2/3 channels; agonistic activity
row,EC50,Compound
1,6.35 µM,"COc1ccc(CCNC(=O)c2cn3c(n2)CCC(c2ccc(Oc4ccccc4)cc2)C3)cc1OC (stereo not drawn) [Compound 27, N-(3,4-Dimethoxyphenethyl)-6-(4-phenoxyphenyl)-5,6,7,8-tetrahydroimidazo[1,2-a]pyridine-2-carboxamide]"
2,3.95 µM,"CCCCCCNC(=O)c1cn2c(n1)CCC(c1cc(C)c(OC)c(C)c1)C2 (stereo not drawn) [Compound 16, N-Hexyl-6-(4-methoxy-3,5-dimethylphenyl)-5,6,7,8-tetrahydroimidazo[1,2-a]pyridine-2-carboxamide]"

# Source: patent US8288424B2, “Substituted tetrahydroimidazopyridine compounds and the use thereof in the treatment of pain and other conditions” (Gruenenthal GmbH, priority 2008, dated 2012)
